Test results reported in ChEMBL document CHEMBL1144959, “Nonpeptide RGD antagonists: a novel class of mimetics, the 5,8-disubstituted 1-azabicyclo[5.2.0]nonan-2-one lactam” (Bioorg Med Chem Lett, 2003).

Biological target: Integrin alpha-5/beta-1 (Homo sapiens, UniProt P05556+P08648)
Assay: Inhibition of fibronectin (GST-3Fn8-11) binding to recombinant soluble mini integrin alpha5-beta1
Format: protein-complex assay

Chain of Integrin alpha-5/beta-1 (P05556 21-798 limits assumed): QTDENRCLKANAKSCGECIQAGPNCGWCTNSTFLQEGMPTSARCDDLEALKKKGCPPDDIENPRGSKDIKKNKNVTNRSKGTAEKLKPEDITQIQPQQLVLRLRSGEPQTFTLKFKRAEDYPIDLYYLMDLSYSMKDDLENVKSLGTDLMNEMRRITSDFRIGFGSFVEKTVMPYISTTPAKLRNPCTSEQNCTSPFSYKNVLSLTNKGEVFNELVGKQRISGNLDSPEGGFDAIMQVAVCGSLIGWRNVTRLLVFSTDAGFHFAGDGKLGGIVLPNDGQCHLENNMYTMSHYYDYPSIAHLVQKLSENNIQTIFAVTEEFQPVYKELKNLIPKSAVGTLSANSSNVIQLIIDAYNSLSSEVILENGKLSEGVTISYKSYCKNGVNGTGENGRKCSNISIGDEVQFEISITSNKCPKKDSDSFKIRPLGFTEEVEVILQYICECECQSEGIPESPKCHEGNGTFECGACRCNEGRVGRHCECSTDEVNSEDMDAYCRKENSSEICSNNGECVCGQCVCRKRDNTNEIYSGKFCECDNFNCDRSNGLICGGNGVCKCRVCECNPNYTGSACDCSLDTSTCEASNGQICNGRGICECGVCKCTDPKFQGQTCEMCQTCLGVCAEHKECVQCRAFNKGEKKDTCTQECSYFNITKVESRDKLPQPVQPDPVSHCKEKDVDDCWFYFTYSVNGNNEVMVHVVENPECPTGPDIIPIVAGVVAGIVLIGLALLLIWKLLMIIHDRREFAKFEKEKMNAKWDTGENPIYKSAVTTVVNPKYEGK
Chain of Integrin alpha-5/beta-1 (P08648 42-894 limits assumed): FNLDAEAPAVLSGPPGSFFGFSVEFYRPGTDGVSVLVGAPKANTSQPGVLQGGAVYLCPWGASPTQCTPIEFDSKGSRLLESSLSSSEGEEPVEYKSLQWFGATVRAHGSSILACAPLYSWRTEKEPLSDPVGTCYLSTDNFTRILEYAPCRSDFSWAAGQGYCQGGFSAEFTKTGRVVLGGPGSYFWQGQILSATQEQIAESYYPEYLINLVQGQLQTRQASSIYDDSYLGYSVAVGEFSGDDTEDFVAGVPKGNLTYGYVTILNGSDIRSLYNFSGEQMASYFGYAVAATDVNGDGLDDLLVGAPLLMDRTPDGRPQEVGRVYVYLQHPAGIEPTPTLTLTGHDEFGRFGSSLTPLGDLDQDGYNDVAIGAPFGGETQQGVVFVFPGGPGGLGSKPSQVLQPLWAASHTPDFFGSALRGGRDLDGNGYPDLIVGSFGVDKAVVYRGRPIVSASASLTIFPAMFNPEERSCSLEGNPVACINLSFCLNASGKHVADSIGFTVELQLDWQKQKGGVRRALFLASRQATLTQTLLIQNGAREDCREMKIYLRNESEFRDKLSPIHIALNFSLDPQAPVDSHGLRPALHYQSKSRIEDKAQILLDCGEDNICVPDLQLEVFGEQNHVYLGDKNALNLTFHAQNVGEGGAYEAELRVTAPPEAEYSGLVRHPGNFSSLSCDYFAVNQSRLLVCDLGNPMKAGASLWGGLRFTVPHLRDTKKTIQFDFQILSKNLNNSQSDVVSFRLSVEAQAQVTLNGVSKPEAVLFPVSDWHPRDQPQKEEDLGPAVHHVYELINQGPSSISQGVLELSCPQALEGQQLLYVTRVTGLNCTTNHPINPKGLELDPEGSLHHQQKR
Chain of Integrin alpha-5/beta-1 (P08648 895-1049 limits assumed): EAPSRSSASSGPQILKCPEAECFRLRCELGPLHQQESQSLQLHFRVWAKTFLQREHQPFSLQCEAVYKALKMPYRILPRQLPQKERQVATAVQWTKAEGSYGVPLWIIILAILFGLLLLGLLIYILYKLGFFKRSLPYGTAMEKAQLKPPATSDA

Row | IC50 [µM] | Structure (SMILES)
1 | 3100 | N=C(N)NCCCNC(=O)[C@@H]1CCC(=O)N2C[C@H](CCC(=O)O)[C@H]2C1
2 | 65 | N=C(N)NCCCNC(=O)[C@H]1CCC(=O)N2C[C@H](CCC(=O)O)[C@H]2C1
3 | 2.2 | NC(N)=NCCC[C@H](N)C(=O)NCC(=O)N[C@@H](CC(=O)O)C(=O)N[C@@H](CO)C(=O)O
4 | 1300 | N=C(N)NCCCNC(=O)C1CCC(=O)N2CC(CCC(=O)O)C2C1 (centres undefined)
